Each structure is given as a SMILES string. Bounds are passed on as bounds.

The assay relates to SARS-CoV-2 strain USA-WA1/2020. Nature of the assay: microbe, parasite or virus in culture. The assay is classed as cell-based. The settings on record: Severe acute respiratory syndrome coronavirus 2, HeLa-ACE2, 24 h, HeLa-ACE2 cells, SARS-CoV-2 infection, 24 h; read-out: EC50, uM (Hela).
In general, EC50 refers to the concentration needed to bring the measured effect to its halfway point. For `CC(O)C(F)(F)C(=O)N1CC2(CC2)C[C@H]1C(=O)N[C@@H](C[C@@H]1CCNC1=O)C(=O)COC(F)(F)F` (stereo partly drawn) [Compound 756, (6S)-5-(2,2-difluoro-3-hydroxybutanoyl)-N-((S)-3-oxo-1-((S)-2-oxopyrrolidin-3-yl)-4-(trifluoromethoxy)butan-2-yl)-5-azaspiro[2.4]heptane-6-carboxamide], the 50% effective concentration (EC50) was 0.05 to 0.2 µM.

As to `[2H]C([2H])([2H])CCCCC(=O)N1CC2(CC2)C[C@H]1C(=O)N[C@@H](C[C@@H]1CCNC1=O)C(=O)COC(F)(F)F` [Compound 757, (S)-5-(hexanoyl-6,6,6-d3)-N-((S)-3-oxo-l-((S)-2-oxopyrrolidin-3-yl)-4-(trifluoromethoxy)butan-2-yl)-5-azaspiro[2.4]heptane-6-carboxamide], the half-maximal effective concentration (EC50) was less than 0.05 µM.

For `CCC(OC)C(=O)N1CC2(CC2)C[C@H]1C(=O)N[C@@H](C[C@@H]1CCNC1=O)C(=O)COC(F)(F)F` (stereo partly drawn) [Compound 758, (6S)-5-(2-methoxybutanoyl)-N-((S)-3-oxo-1-((S)-2-oxopyrrolidin-3-yl)-4-(trifluoromethoxy)butan-2-yl)-5-azaspiro[2.4]heptane-6-carboxamide], the EC50 is 0.2 to 0.5 µM.

Regarding `O=C1NCC[C@H]1C[C@H](NC(=O)[C@@H]1CC2(CC2)CN1C(=O)[C@H](O)C1CCC1)C(=O)COC(F)(F)F` [Compound 760, (S)-5-((R)-2-cyclobutyl-2-hydroxyacetyl)-N-((S)-3-oxo-1-((S)-2-oxopyrrolidin-3-yl)-4-(trifluoromethoxy)butan-2-yl)-5-azaspiro[2.4]heptane-6-carboxamide], the concentration giving a half-maximal response (EC50) lay in the range of 0.05 to 0.2 µM.

Turning to `CC(C)C[C@@H](O)C(=O)N1C[C@H](c2ccccc2)C[C@H]1C(=O)N[C@@H](C[C@@H]1CCNC1=O)C(=O)COC(F)(F)F` [Compound 761, (2S,4S)-1-((R)-2-hydroxy-4-methylpentanoyl)-N-((S)-3-oxo-1-((S)-2-oxopyrrolidin-3-yl)-4-(trifluoromethoxy)butan-2-yl)-4-phenylpyrrolidine-2-carboxamide], the EC50 was less than 0.05 µM.

In the case of `CC(C)(F)C(O)C(=O)N1CC2(CC2)C[C@H]1C(=O)N[C@@H](C[C@@H]1CCNC1=O)C(=O)COC(F)(F)F` (stereo partly drawn) [Compound 762, (6S)-5-(3-fluoro-2-hydroxy-3-methylbutanoyl)-N-((S)-3-oxo-1-((S)-2-oxopyrrolidin-3-yl)-4-(trifluoromethoxy)butan-2-yl)-5-azaspiro[2.4]heptane-6-carboxamide], the half-maximal effective concentration (EC50) lay within 0.05 to 0.2 µM.

`[2H]C([2H])([2H])CCCC(=O)N1CC2(CC2)C[C@H]1C(=O)N[C@@H](C[C@@H]1CCNC1=O)C(=O)COC(F)(F)F` [Compound 763, (S)-N-((S)-3-oxo-1-((S)-2-oxopyrrolidin-3-yl)-4-(trifluoromethoxy)butan-2-yl)-5-(pentanoyl-5,5,5-d3)-5-azaspiro[2.4]heptane-6-carboxamide]: the EC50 was less than 0.05 µM.

Turning to `[2H]C([2H])([2H])CCC(=O)N1CC2(CC2)C[C@H]1C(=O)N[C@@H](C[C@@H]1CCNC1=O)C(=O)COC(F)(F)F` [Compound 764, (S)-5-(butanoyl-4,4,4-d3)-N-((S)-3-oxo-1-((S)-2-oxopyrrolidin-3-yl)-4-(trifluoromethoxy)butan-2-yl)-5-azaspiro[2.4]heptane-6-carboxamide], the half-maximal effective concentration (EC50) was 0.05 to 0.2 µM.

For `CC(C)C[C@H](NS(=O)(=O)c1ccc2c(ccn2C)c1)C(=O)N[C@@H](C[C@@H]1CCNC1=O)C(=O)COc1c(F)c(F)cc(F)c1F` [Compound 765, (S)-4-methyl-2-((l-methyl-1H-indole)-5-sulfonamido)-N-((S)-3-oxo-1-((S)-2-oxopyrrolidin-3-yl)-4-(2,3,5,6-tetrafluorophenoxy)butan-2-yl)pentanamide], the 50% effective concentration (EC50) was less than 0.05 µM.

For `CCC[C@@H](O)C(=O)N1CC2(CC2)C[C@H]1C(=O)N[C@@H](C[C@@H]1CCNC1=O)C(=O)COC(F)(F)F` [Compound 766, (S)-5-((R)-2-hydroxypentanoyl)-N-((S)-3-oxo-1-((S)-2-oxopyrrolidin-3-yl)-4-(trifluoromethoxy)butan-2-yl)-5-azaspiro[2.4]heptane-6-carboxamide], the 50% effective concentration (EC50) was 0.05 to 0.2 µM.

Turning to `CC(C)C[C@@H](O)C(=O)N[C@@H](CC(C)C)C(=O)N[C@@H](C[C@@H]1CCNC1=O)C(=O)COC(F)(F)F` [Compound 767, (R)-2-hydroxy-4-methyl-N-((S)-4-methyl-1-oxo-1-(((S)-3-oxo-1-((S)-2-oxopyrrolidin-3-yl)-4-(trifluoromethoxy)butan-2-yl)amino)pentan-2-yl)pentanamide], the half-maximal effective concentration (EC50) lay within 0.2 to 0.5 µM.

As to `O=C(N[C@@H](C[C@@H]1CCNC1=O)C(=O)COC(F)(F)F)C1CCCCCN1C(=O)[C@@H](O)c1ccccc1` (stereo partly drawn) [Compound 768, l-((S)-2-hydroxy-2-phenylacetyl)-N-((S)-3-oxo-1-((S)-2-oxopyrrolidin-3-yl)-4-(trifluoromethoxy)butan-2-yl)azepane-2-carboxamide], the EC50 lay within 0.05 to 0.2 µM.

Consider `O=C(N[C@@H](C[C@@H]1CCNC1=O)C(=O)COC(F)(F)F)C1CCCCN1C(=O)[C@@H](O)c1ccccc1` (stereo partly drawn) [Compound 769, l-((S)-2-hydroxy-2-phenylacetyl)-N-((S)-3-oxo-1-((S)-2-oxopyrrolidin-3-yl)-4-(trifluoromethoxy)butan-2-yl)piperidine-2-carboxamide], for which the EC50 was less than 0.05 µM.

For the compound `CC(C)C[C@@H](O)C(=O)N1CC2(CCC2)CC1C(=O)N[C@@H](C[C@@H]1CCNC1=O)C(=O)COC(F)(F)F` (stereo partly drawn) [Compound 770, 6-((R)-2-hydroxy-4-methylpentanoyl)-N-((S)-3-oxo-1-((S)-2-oxopyrrolidin-3-yl)-4-(trifluoromethoxy)butan-2-yl)-6-azaspiro[3.4]octane-7-carboxamide], the EC50 is 0.05 to 0.2 µM.

`CC(C)C[C@@H](O)C(=O)N1C[C@@H](CC2CCC2)C[C@H]1C(=O)N[C@@H](C[C@@H]1CCNC1=O)C(=O)COC(F)(F)F` [Compound 772, (2S,4S)-4-(cyclobutylmethyl)-1-((R)-2-hydroxy-4-methylpentanoyl)-N-((S)-3-oxo-1-((S)-2-oxopyrrolidin-3-yl)-4-(trifluoromethoxy)butan-2-yl)pyrrolidine-2-carboxamide]: the EC50 was less than 0.05 µM.

For the compound `O=C1NCC[C@H]1C[C@H](NC(=O)[C@@H]1CC2(CC2)CN1C(=O)COc1ccc(OC(F)(F)F)cc1)C(=O)COC(F)(F)F` [Compound 773, (S)-N-((S)-3-oxo-1-((S)-2-oxopyrrolidin-3-yl)-4-(trifluoromethoxy)butan-2-yl)-5-(2-(4-(trifluoromethoxy)phenoxy)acetyl)-5-azaspiro[2.4]heptane-6-carboxamide], the EC50 was less than 0.05 µM.

In the case of `CC(C)C[C@@H](O)C(=O)N1CC2(CC2)C[C@H]1C(=O)N[C@@H](C[C@@H]1CCCNC1=O)C(=O)COc1c(F)c(F)c(F)c(F)c1F` [Compound 779, (S)-5-((R)-2-hydroxy-4-methylpentanoyl)-N-((S)-3-oxo-1-((S)-2-oxopiperidin-3-yl)-4-(perfluorophenoxy)butan-2-yl)-5-azaspiro[2.4]heptane-6-carboxamide], the concentration giving a half-maximal response (EC50) was less than 0.05 µM.

`O=C1NCC[C@H]1C[C@H](NC(=O)[C@@H]1C[C@@H](c2ccccc2)CN1C(=O)[C@@H](O)c1ccccc1)C(=O)COC(F)(F)F` [Compound 780, (2S,4S)-1-((S)-2-hydroxy-2-phenylacetyl)-N-((S)-3-oxo-1-((S)-2-oxopyrrolidin-3-yl)-4-(trifluoromethoxy)butan-2-yl)-4-phenylpyrrolidine-2-carboxamide]: the EC50 is less than 0.05 µM.
